Laboratory results reported in PubChem BioAssay AID2165 (The Scripps Research Institute Molecular Screening Center, 2009).
Activity calls are given as the source filed them. No stated cut-off is given here; in the data, active means IC50 below about 9 µM; inactive means the rest.

Molecular target: Tyrosine-protein kinase JAK2 (Homo sapiens) (UniProt O60674)
Assay: JAK2V617F kinase, IRF1 reporter and Ba/F3 cytotoxicity panel, late-stage follow-up, HEL and Ba/F3 cells (AID 2165)

Tyrosine-protein kinase JAK2 (Homo sapiens), sequence (O60674 whole entry, looked up, change not shown): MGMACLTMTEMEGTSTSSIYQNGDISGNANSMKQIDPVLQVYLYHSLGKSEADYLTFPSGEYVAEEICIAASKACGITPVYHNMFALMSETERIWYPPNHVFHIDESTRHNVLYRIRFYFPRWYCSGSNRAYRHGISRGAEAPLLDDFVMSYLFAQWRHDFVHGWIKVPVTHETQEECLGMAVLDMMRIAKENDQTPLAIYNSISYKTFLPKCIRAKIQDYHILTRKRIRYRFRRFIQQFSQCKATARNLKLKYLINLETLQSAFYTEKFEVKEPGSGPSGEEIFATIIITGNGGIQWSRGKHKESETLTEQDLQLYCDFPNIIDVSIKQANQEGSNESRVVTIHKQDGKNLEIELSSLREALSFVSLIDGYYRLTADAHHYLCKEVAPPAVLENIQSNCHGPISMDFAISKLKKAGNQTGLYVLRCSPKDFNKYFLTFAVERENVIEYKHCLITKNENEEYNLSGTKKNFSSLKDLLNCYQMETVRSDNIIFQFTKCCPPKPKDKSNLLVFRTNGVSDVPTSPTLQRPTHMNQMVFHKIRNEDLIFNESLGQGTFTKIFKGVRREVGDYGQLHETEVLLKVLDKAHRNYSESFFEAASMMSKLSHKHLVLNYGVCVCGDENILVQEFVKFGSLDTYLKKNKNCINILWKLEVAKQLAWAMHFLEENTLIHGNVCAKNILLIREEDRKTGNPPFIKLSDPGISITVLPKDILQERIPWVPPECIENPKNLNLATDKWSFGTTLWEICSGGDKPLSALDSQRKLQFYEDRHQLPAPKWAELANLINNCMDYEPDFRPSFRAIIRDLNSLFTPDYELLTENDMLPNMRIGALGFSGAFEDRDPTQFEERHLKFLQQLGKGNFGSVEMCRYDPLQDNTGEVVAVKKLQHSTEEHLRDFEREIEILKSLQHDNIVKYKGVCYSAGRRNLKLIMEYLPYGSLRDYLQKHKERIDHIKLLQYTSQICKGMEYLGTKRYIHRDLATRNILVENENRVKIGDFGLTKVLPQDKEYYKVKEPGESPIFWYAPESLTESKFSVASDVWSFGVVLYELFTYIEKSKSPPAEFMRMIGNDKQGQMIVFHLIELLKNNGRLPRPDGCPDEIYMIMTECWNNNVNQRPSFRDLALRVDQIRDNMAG

| SMILES | IC50 (Ba/F3, irf1 reporter) | IC50 (HEL, irf1 reporter) | IC50 (JAK2V617F) |
| --- | --- | --- | --- |
| Cc1nc2c(=O)n(C)c(=O)n(C)c2nc1Cl | 1.97 µM | 15.7 µM | – |
| COc1ccc(Cl)cc1NC(=O)NC(C)c1ccncc1 (stereo not drawn) | – | > 40 µM (inactive) | > 40 µM (inactive) |
| O=C(C=Cc1ccccc1F)c1c(-c2ccccc2)c2ccccc2[nH]c1=O | 0.39 µM | 0.39 µM | 0.39 µM |
| Cc1cccc(Nc2nc(N)nc(CCl)n2)c1C | 14.9 µM | 1.17 µM | – |
| Cc1cccc(OCC(=O)Nc2ccccc2F)c1 | – | > 40 µM (inactive) | > 40 µM (inactive) |
| Oc1ccc(/C=N/N2CCN(C3c4ccccc4-c4ccccc43)CC2)cc1O | 2.47 µM | 5.15 µM | – |
| C=CCNc1ncnc2cc(OC)c(OC)cc12 | – | > 40 µM (inactive) | > 40 µM (inactive) |
| N#CC(C#N)=Cc1ccc(O)c(O)c1 | 0.24 µM | > 40 µM (inactive) | > 40 µM (inactive) |
| CCCc1nc2ccccc2c(=O)n1/N=C/c1ccc(O)c(O)c1 | 2.13 µM | 13.1 µM | – |
| CC(C)(C)OC(=O)N[C@@H](Cc1ccccc1)c1nnc(S(=O)(=O)Cc2cccc(F)c2)o1 | 0.904 µM | 26.3 µM | – |
| COc1cc2ncnc(Nc3ccccc3)c2cc1OC | – | 5.92 µM | > 40 µM (inactive) |
| O=S(=O)(c1cnc(Cl)c(Br)c1)N1CCc2ccccc21 | 6.61 µM | > 40 µM (inactive) | – |
| COc1cc(/C=C(\C#N)C(N)=O)cc(CSc2nc3ccccc3s2)c1O | 3.35 µM | 4.15 µM | 6.78 µM |
| Cc1[nH]c(=O)c(C(=O)C=Cc2ccc(Cl)cc2Cl)c2c1CCCC2 | 0.53 µM | 2.57 µM | 1.43 µM |
| CCC(C)c1ccc(OCC(=O)Nc2cc(C)ccc2O)cc1 (stereo not drawn) | – | – | 33.2 µM |
| Cc1[nH]c(=O)c(C(=O)C=Cc2ccccc2Cl)c2c1CCCC2 | 0.214 µM | 0.53 µM | 0.13 µM |
| Cc1ccc(O)c(NC(=O)COc2ccccc2Cl)c1 | – | – | 0.0247 µM |
| Cc1cccc(NC(=O)c2ccc([N+](=O)[O-])o2)c1 | 6.3 µM | 10.5 µM | – |
| CCCCn1c(=N)n(CC(=O)c2ccc(Br)s2)c2ccccc21 | 3.61 µM | 9.86 µM | – |
| CCC(C)[C@@H](NC(=O)OC(C)(C)C)c1nnc(S(=O)(=O)Cc2cccc(C)c2)o1 (stereo partly drawn) | 0.24 µM | 21.7 µM | – |
| Cc1nn(Cc2ccc(Cl)cc2Cl)c(C)c1NC(=O)CCl | 8.77 µM | 8.61 µM | – |
| CCc1cccc(Nc2ncnc3cc(OCCOC)c(OCCOC)cc23)c1 | – | > 40 µM (inactive) | > 40 µM (inactive) |
| Cc1ccc(O)c(NC(=O)COc2ccc(Cl)cc2)c1 | – | – | 1.51 µM |

| SMILES | IC50 (Ba/F3, irf1 reporter) | IC50 (HEL, irf1 reporter) | IC50 (JAK2V617F) |
| --- | --- | --- | --- |
| Cc1nnc(NC(=O)COc2ccccc2)s1 | – | > 40 µM (inactive) | > 40 µM (inactive) |
| O=C(/C=C/c1ccc(O)c(O)c1)c1ccc(S(=O)(=O)N2CCCCCC2)cc1 | 2.33 µM | > 40 µM (inactive) | – |
| O=C(C=C=Nc1ccccc1)C(=O)N=C=Cc1ccccc1 | 1.31 µM | 14.2 µM | – |
| Cc1cccc(OCC(=O)Nc2cc(C)c(C)cc2O)c1 | – | – | > 40 µM (inactive) |
| CNC(=O)c1nnsc1S(=O)c1ccc(Cl)cc1 (stereo not drawn) | 0.199 µM | 12.1 µM | – |
| COc1cccc(N(C(=O)CCl)C(C(=O)NCCc2ccccc2)c2cccs2)c1 (stereo not drawn) | 2.76 µM | 1.04 µM | – |
| O=C(CCl)NCc1cc(-c2ccc(Cl)cc2)no1 | 5.56 µM | 7.68 µM | – |
| Cc1cc(SCC(=O)N/N=C/c2ccc(O)c(O)c2)c(C)cc1Br | 2.02 µM | > 40 µM (inactive) | – |
| Cc1oc2c(O)c(O)ccc2c(=O)c1-c1cnn(-c2ccccc2)c1 | 12.8 µM | 8.52 µM | – |
| COc1cc2ncnc(Sc3ccc(Cl)cc3)c2cc1OC | – | > 40 µM (inactive) | > 40 µM (inactive) |
| Cc1nn2c(NCc3ccccn3)c3c(nc2c1-c1ccccc1)CCC3 | 10.7 µM | 9.49 µM | – |
| COc1cc2c(cc1OC)-c1cc(N3CCCc4ccccc43)nc(=O)n1CC2 | > 40 µM (inactive) | > 40 µM (inactive) | – |
| COc1ccc(-c2cc(-c3cc(C)ccc3O)[nH]n2)cc1 | 7.06 µM | 1.82 µM | – |
| Cc1ccc(O)c(NC(=O)COc2ccc(C)c(C)c2)c1 | – | – | > 40 µM (inactive) |
| O=C(CCl)N=c1sccn1Cc1ccc(Cl)cc1Cl | 6.08 µM | 2.22 µM | – |
| CC1CCN(CCCNC(=O)c2cc3c(Cl)nc4ccccc4c3s2)CC1 | 9.98 µM | > 40 µM (inactive) | – |
| O=C(COc1ccccc1)Nc1ncccn1 | – | > 40 µM (inactive) | > 40 µM (inactive) |
| C/C(=C\c1ccc(N(C)C)cc1)[N+](=O)[O-] | 2.65 µM | 4.29 µM | – |
| Cc1ccc(O)c(NC(=O)COc2ccc(F)cc2)c1 | – | – | 21.8 µM |
| COc1cc2ncnc(NC3CCCCC3)c2cc1OC | – | 5.22 µM | > 40 µM (inactive) |
| Cc1cc(C)cc(NC(=O)COc2cccc(C)c2)c1 | – | – | > 40 µM (inactive) |
| [O-][N+]1=c2ccc(Nc3ccccc3)cc2=NC12CCCCC2 | 5.15 µM | 7.02 µM | – |
